# Results from ChEMBL document CHEMBL3785036 (J Pharm Sci, 1974).
# Legend:
# Type in all cases: ADME, organism-based
# [1] = Drug excretion in human subject rapid inactivator assessed as total isonicotinoyl compound level in urine at 670 mg, iv infused at constant rate 5.2min measured 486 mins after start of drug injection by colorimetry; details: in vivo, 8.1 h
# [2] = Drug excretion in human subject rapid inactivator assessed as sum of isoniazid plus hydrazones, acetylisoniazid, isonicotinic acid and isonicotinuric acid level in urine at 670 mg, iv infused at constant rate 5.2min measured 94 mins after start of drug injection by colorimetry; details: in vivo
# [3] = Drug excretion in human subject rapid inactivator assessed as sum of isoniazid plus hydrazones, acetylisoniazid, isonicotinic acid and isonicotinuric acid level in urine at 670 mg, iv infused at constant rate 5.2min measured 335 mins after start of drug injection by colorimetry; details: in vivo
# [4] = Drug excretion in human subject rapid inactivator assessed as sum of isoniazid plus hydrazones, acetylisoniazid, isonicotinic acid and isonicotinuric acid level in urine at 670 mg, iv infused at constant rate 5.2min measured 516 mins after start of drug injection by colorimetry; details: in vivo
# [5] = Drug excretion in human subject slow inactivator assessed as total isonicotinoyl compound level in urine at 681 mg, iv infused at constant rate 5.4 min measured 370.3 mins after start of drug injection by colorimetry; details: in vivo, 6.17167 h
# [6] = Drug excretion in human subject slow inactivator assessed as sum of isoniazid plus hydrazones, acetylisoniazid, isonicotinic acid and isonicotinuric acid level in urine at 681 mg, iv infused at constant rate 5.4 min measured 554 mins after start of drug injection by colorimetry; details: in vivo
# [7] = Drug metabolism in human slow inactivators assessed as excretion of isonicotinuric acid in urine at 1 g, iv by colorimetry; details: in vivo
# [8] = Drug excretion in human subject slow inactivator assessed as total isonicotinoyl compound level in urine at 681 mg, iv infused at constant rate 5.4 min measured 116 mins after start of drug injection by colorimetry; details: in vivo
# [9] = Drug excretion in human subject slow inactivator assessed as total isonicotinoyl compound level in urine at 681 mg, iv infused at constant rate 5.4 min measured 339.3 mins after start of drug injection by colorimetry; details: in vivo, 5.655 h
# [10] = Drug excretion in human subject rapid inactivator assessed as total isonicotinoyl compound level in urine at 670 mg, iv infused at constant rate 5.2min measured 426 mins after start of drug injection by colorimetry; details: in vivo, 7.1 h
# [11] = Drug excretion in human subject slow inactivator assessed as total isonicotinoyl compound level in urine at 681 mg, iv infused at constant rate 5.4 min measured 35.5 mins after start of drug injection by colorimetry; details: in vivo
# [12] = Drug excretion in human rapid inactivators urine assessed as isonicotinuric acid level at 1 g, iv by colorimetry; details: in vivo
# [13] = Drug excretion in human subject slow inactivator assessed as total isonicotinoyl compound level in urine at 681 mg, iv infused at constant rate 5.4 min measured 59.1 mins after start of drug injection by colorimetry; details: in vivo, 0.985 h
# [14] = Drug excretion in human slow inactivators urine assessed as isoniazid plus hydrazones level at 1 g, iv by colorimetry; details: in vivo
# [15] = Drug excretion in human subject slow inactivator assessed as total isonicotinoyl compound level in urine at 681 mg, iv infused at constant rate 5.4 min measured 554 mins after start of drug injection by colorimetry; details: in vivo
# [16] = Drug excretion in human slow inactivators urine at 1 g, iv by colorimetry; details: in vivo
# [17] = Drug excretion in human subject slow inactivator assessed as sum of isoniazid plus hydrazones, acetylisoniazid, isonicotinic acid and isonicotinuric acid level in urine at 681 mg, iv infused at constant rate 5.4 min measured 276.3 mins after start of drug injection by colorimetry; details: in vivo, 4.605 h
# [18] = Drug excretion in human subject rapid inactivator assessed as total isonicotinoyl compound level in urine at 670 mg, iv infused at constant rate 5.2min measured 32 mins after start of drug injection by colorimetry; details: in vivo
# [19] = Drug excretion in human subject slow inactivator assessed as sum of isoniazid plus hydrazones, acetylisoniazid, isonicotinic acid and isonicotinuric acid level in urine at 681 mg, iv infused at constant rate 5.4 min measured 430.2 mins after start of drug injection by colorimetry; details: in vivo, 7.17 h
# [20] = Drug excretion in human subject slow inactivator assessed as sum of isoniazid plus hydrazones, acetylisoniazid, isonicotinic acid and isonicotinuric acid level in urine at 681 mg, iv infused at constant rate 5.4 min measured 150 mins after start of drug injection by colorimetry; details: in vivo, 2.5 h
# [21] = Drug metabolism in human rapid inactivators assessed as excretion of pyruvic acid isonicotinoylhydrazone in urine at 1 g, iv by colorimetry; details: in vivo
# [22] = Drug excretion in human subject rapid inactivator assessed as total isonicotinoyl compound level in urine at 670 mg, iv infused at constant rate 5.2min measured 126 mins after start of drug injection by colorimetry; details: in vivo, 2.1 h
# [23] = Drug excretion in human subject slow inactivator assessed as sum of isoniazid plus hydrazones, acetylisoniazid, isonicotinic acid and isonicotinuric acid level in urine at 681 mg, iv infused at constant rate 5.4 min measured 181 mins after start of drug injection by colorimetry; details: in vivo
# [24] = Drug excretion in human subject rapid inactivator assessed as sum of isoniazid plus hydrazones, acetylisoniazid, isonicotinic acid and isonicotinuric acid level in urine at 670 mg, iv infused at constant rate 5.2min measured 227 mins after start of drug injection by colorimetry; details: in vivo
# [25] = Drug excretion in human subject slow inactivator assessed as total isonicotinoyl compound level in urine at 681 mg, iv infused at constant rate 5.4 min measured 524 mins after start of drug injection by colorimetry; details: in vivo
# [26] = Drug metabolism in human rapid inactivators assessed as excretion of 1,2-diacetylhydrazine in urine at 1 g, iv by colorimetry; details: in vivo
# [27] = Drug excretion in human subject slow inactivator assessed as sum of isoniazid plus hydrazones, acetylisoniazid, isonicotinic acid and isonicotinuric acid level in urine at 681 mg, iv infused at constant rate 5.4 min measured 339.3 mins after start of drug injection by colorimetry; details: in vivo, 5.655 h
# [28] = Drug excretion in human subject slow inactivator assessed as sum of isoniazid plus hydrazones, acetylisoniazid, isonicotinic acid and isonicotinuric acid level in urine at 681 mg, iv infused at constant rate 5.4 min measured 35.5 mins after start of drug injection by colorimetry; details: in vivo
# [29] = Drug excretion in human subject rapid inactivator assessed as total isonicotinoyl compound level in urine at 670 mg, iv infused at constant rate 5.2min measured 94 mins after start of drug injection by colorimetry; details: in vivo
# [30] = Drug excretion in human rapid inactivators urine at 1 g, iv by colorimetry; details: in vivo
# [31] = Drug excretion in human subject slow inactivator assessed as total isonicotinoyl compound level in urine at 681 mg, iv infused at constant rate 5.4 min measured 208.7 mins after start of drug injection by colorimetry; details: in vivo, 3.47833 h
# [32] = Drug excretion in human subject rapid inactivator assessed as sum of isoniazid plus hydrazones, acetylisoniazid, isonicotinic acid and isonicotinuric acid level in urine at 670 mg, iv infused at constant rate 5.2min measured 158 mins after start of drug injection by colorimetry; details: in vivo
compound,measurement,setting,value
NNC(=O)c1ccncc1 [ISONIAZID],Drug excretion,[1],12.5 mg
same,Drug excretion,[2],48.1 mg
same,Drug excretion,[3],29 mg
same,Drug excretion,[4],16.8 mg
same,Drug excretion,[5],26.6 mg
same,Drug excretion,[6],13.38 mg
same,Drug metabolism,[7],14.2 %molar
same,Drug excretion,[8],32 mg
same,Drug excretion,[9],32 mg
same,Drug excretion,[10],17.1 mg
same,Drug excretion,[11],50.1 mg
same,Drug excretion,[12],101%
same,Drug excretion,[13],33.7 mg
same,Drug excretion,[14],98%
same,Drug excretion,[15],13.1 mg
same,Drug excretion,[16],12.7 %molar
same,Drug excretion,[17],32.59 mg
same,Drug excretion,[18],45.9 mg
same,Drug excretion,[19],21.24 mg
same,Drug excretion,[20],38.71 mg
same,Drug metabolism,[21],2.9 %molar
same,Drug excretion,[22],43.4 mg
same,Drug excretion,[23],34.76 mg
same,Drug excretion,[24],38.5 mg
same,Drug excretion,[25],10.4 mg
same,Drug metabolism,[26],48.4 %molar
same,Drug excretion,[27],33.69 mg
same,Drug excretion,[28],44.45 mg
same,Drug excretion,[29],51.8 mg
same,Drug excretion,[30],3.6 %molar
same,Drug excretion,[31],27.1 mg
same,Drug excretion,[32],49.9 mg
